Among the data in patent publication US12077503B2, “Substituted cyclic amides and their use as herbicides” (FMC CORPORATION, priority 2015, dated 2024) are pest or weed control, plant injury and Corn plant response rating (crop injury, 0 = no effect, 100 = complete kill) values, retold here.

Type in all cases: in vivo
Test [1] relates to giant foxtail (Setaria faberii). The test is described as follows: Test A postemergence. The note with it: Setaria faberi, post-emergence, 240 h, 125 g ai/ha, postemergence; visual injury after approximately 10 d; 0 to 100 scale (0 no effect, 100 complete control); read-out: Plant response rating, Foxtail, Giant. In a few lines: (§1)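 Treatment is preemergence as a directed soil spray after planting, or postemergence at the one- to two-leaf stage, with test chemical in a non-phytotoxic solvent mixture plus surfactant. Plants stay in the greenhouse about 10 d before visual injury scoring on a 0 to 100 scale versus untreated controls.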

Test [2] relates to Galium (catchweed bedstraw, Galium aparine). The test is described as follows: Test A postemergence. The note with it: Galium, post-emergence, 240 h, 125 g ai/ha, postemergence; visual injury after approximately 10 d; 0 to 100 scale (0 no effect, 100 complete control); read-out: Plant response rating, Galium. In a few lines: as §1
Test [3] has as its system Kochia (Kochia scoparia). The test is described as follows: Test A postemergence. Conditions: Bassia scoparia, post-emergence, 240 h, 125 g ai/ha, postemergence; visual injury after approximately 10 d; 0 to 100 scale (0 no effect, 100 complete control); read-out: Plant response rating, Kochia. The procedure, abridged:
as §1

Test [4] deals with ragweed (common ragweed, Ambrosia elatior). The test is described as follows: Test A postemergence. Conditions: Ambrosia artemisiifolia, post-emergence, 240 h, 125 g ai/ha, postemergence; visual injury after approximately 10 d; 0 to 100 scale (0 no effect, 100 complete control); read-out: Plant response rating, Ragweed. In a few lines: as §1
Test [5] concerns barnyardgrass (Echinochloa crus-galli). The test is described as follows: Test A postemergence. The note with it: Echinochloa crus-galli, post-emergence, 240 h, 125 g ai/ha, postemergence; visual injury after approximately 10 d; 0 to 100 scale (0 no effect, 100 complete control); read-out: Plant response rating, Barnyardgrass. The procedure, abridged:
as §1

Test [6] deals with pigweed (Amaranthus retroflexus). The test is described as follows: Test A postemergence. The note with it: Amaranthus retroflexus, post-emergence, 240 h, 125 g ai/ha, postemergence; visual injury after approximately 10 d; 0 to 100 scale (0 no effect, 100 complete control); read-out: Plant response rating, Pigweed. The procedure, abridged: as §1
Test [7] deals with wheat (Triticum aestivum). The test is described as follows: Test A postemergence. The note with it: Triticum aestivum, post-emergence, 240 h, 125 g ai/ha, postemergence; visual injury after approximately 10 d; 0 to 100 scale (0 no effect, 100 complete control); read-out: Plant response rating, Wheat. In a few lines:
as §1

Test [8] relates to blackgrass (Alopecurus myosuroides). The test is described as follows: Test A postemergence. The note with it: Alopecurus myosuroides, post-emergence, 240 h, 125 g ai/ha, postemergence; visual injury after approximately 10 d; 0 to 100 scale (0 no effect, 100 complete control); read-out: Plant response rating, Blackgrass. The procedure, abridged:
as §1

In test [9] the test system is corn (Zea mays). The test is described as follows: Test A postemergence. Conditions: Zea mays, post-emergence, 240 h, 125 g ai/ha, postemergence; visual injury after approximately 10 d; 0 to 100 scale (0 no effect, 100 complete control). The procedure, abridged:
as §1

The subject of test [10] is ryegrass, Italian (Italian ryegrass, Lolium multiflorum). The test is described as follows: Test A postemergence. The note with it: Lolium multiflorum, post-emergence, 240 h, 125 g ai/ha, postemergence; visual injury after approximately 10 d; 0 to 100 scale (0 no effect, 100 complete control); read-out: Plant response rating, Ryegrass, Italian. The procedure, abridged: as §1

The test system of test [11] is giant foxtail (Setaria faberii). The test is described as follows: Test A preemergence. The note with it: Setaria faberi, pre-emergence, 240 h, preemergence, read-out: Plant response rating, Foxtail, Giant; for pest or weed control at 125 g/ha: 125 g ai/ha, visual rating after approx. 10 d, 0 to 100 scale where 0 is no effect and 100 is complete control; for pest or weed control at 500 g/ha: 500 g ai/ha, 0 to 100 scale, 0 = no effect, 100 = complete control. In a few lines: as §1

In test [12] the test system is Kochia (Kochia scoparia). The test is described as follows: Test A preemergence. The note with it: Bassia scoparia, pre-emergence, 240 h, preemergence, read-out: Plant response rating, Kochia; for pest or weed control at 125 g/ha: 125 g ai/ha, visual rating after approx. 10 d, 0 to 100 scale where 0 is no effect and 100 is complete control; for pest or weed control at 500 g/ha: 500 g ai/ha, 0 to 100 scale, 0 = no effect, 100 = complete control. In a few lines: as §1

Test [13] relates to ragweed (common ragweed, Ambrosia elatior). The test is described as follows: Test A preemergence. The note with it: Ambrosia artemisiifolia, pre-emergence, 240 h, preemergence, read-out: Plant response rating, Ragweed; for pest or weed control at 125 g/ha: 125 g ai/ha, visual rating after approx. 10 d, 0 to 100 scale where 0 is no effect and 100 is complete control; for pest or weed control at 500 g/ha: 500 g ai/ha, 0 to 100 scale, 0 = no effect, 100 = complete control. In a few lines:
as §1

The test system of test [14] is pigweed (Amaranthus retroflexus). The test is described as follows: Test A preemergence. Conditions: Amaranthus retroflexus, pre-emergence, 240 h, preemergence, read-out: Plant response rating, Pigweed; for pest or weed control at 125 g/ha: 125 g ai/ha, visual rating after approx. 10 d, 0 to 100 scale where 0 is no effect and 100 is complete control; for pest or weed control at 500 g/ha: 500 g ai/ha, 0 to 100 scale, 0 = no effect, 100 = complete control.

Test [15] deals with ryegrass, Italian (Italian ryegrass, Lolium multiflorum). The test is described as follows: Test A preemergence. Conditions: Lolium multiflorum, pre-emergence, 240 h, preemergence, read-out: Plant response rating, Ryegrass, Italian; for pest or weed control at 125 g/ha: 125 g ai/ha, visual rating after approx. 10 d, 0 to 100 scale where 0 is no effect and 100 is complete control. The procedure, abridged: as §1

For the compound `CN1C[C@H](c2ccc3c(c2)CCC3)[C@@H](C(=O)Nc2cccc(F)c2F)C1=O` [Compound 743], the pest or weed control at 125 g/ha in test [1] is 90%; in [2] it was 50%; in test [3], 30%; in test [4], 0%; in [5] it was 90%; in test [6], 0%. The pest or weed control at 125 g/ha in test [8] was 30%; in [10], 40%; in [11] it was 90%; in test [12] it was 60%; in test [13], 0%; in test [14] it was 0%. Further, in test [15], the pest or weed control at 125 g/ha stood at 90%. Besides, the plant injury at 125 g/ha in [7] is 50%. Further, the Corn plant response rating (crop injury, 0 = no effect, 100 = complete kill) at 125 g/ha in [9] worked out at 60%. Further, the pest or weed control at 500 g/ha was 90% in test [11]; 80% in test [12]; 40% in [13]; 20% in [14]; 90% in [15] (500 g ai/ha, 0 to 100 scale, 0 = no effect, 100 = complete control).
`Cc1ccc([C@H]2CNC(=S)[C@@H]2C(=O)Nc2cccc(F)c2C)cc1C` [Compound 764]: the pest or weed control at 125 g/ha is 0% in [1]; 0% in test [2]; 0% in test [3]; 0% in test [4]; 80% in [5]; 0% in [6]. Further, the pest or weed control at 125 g/ha in test [8] came out at 0%; in [10], 30%; in test [11], 70%; in [12] it was 0%; in test [13], 0%; in [14] it was 0%. Moreover, the pest or weed control at 125 g/ha in [15] came out at 0%. Moreover, the plant injury at 125 g/ha in test [7] came out at 0%. The compound further showed a Corn plant response rating (crop injury, 0 = no effect, 100 = complete kill) at 125 g/ha in test [9] of 0%. In addition, the pest or weed control at 500 g/ha in test [11] came out at 80%; in [12], 0%; in test [13], 0%; in test [14], 0%.
